Experimental data from patent US20230240297A1, “SELECTIVE HERBICIDES BASED ON SUBSTITUTED ISOXAZOLIN CARBOXAMIDES AND CYPROSULFAMIDE” (Bayer Aktiengesellschaft, priority 2020, published 2023).

Assays:
Type in all cases: in vivo, maize
ZEAMA Sileno [1] = experiment: Seed treatment with safener; post-emergence herbicide application; design: Reduction [Difference]: scale not given here; conditions: Final assessment; for Reduction [%] / Reduction [Difference]: Cyprosulfamide 0.5 g a.i./kg seed; for Reduction [Difference]: damage without safener - damage with safener; for HER effect + SAF (crop damage with safener): Cyprosulfamide seed treatment 0.5 g a.i./kg seed; for HER effect (crop damage, herbicide without safener): no safener
Method in brief: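 Maize seeds slurry-coated with WP safener (g a.i./kg seed) or left untreated, sown in sandy loam and grown in greenhouse. WP herbicide sprayed post-emergence at BBCH11-13 in 300 l/ha water with wetting agent and adjuvants (e.g. Mero 1.5 l/ha, ammonium sulphate 2 kg/ha); means of at least 2 replicates.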

ZEAMA Abraxas = experiment: Tank-mix; post-emergence, crop damage with and without safener; conditions: for HER effect + SAF / HER effect: Final assessment; for HER effect: no safener
Method in brief: (§1)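 Crops in sandy loam in the greenhouse were sprayed at the 1–3-leaf stage, 2–3 weeks after sowing, with herbicide/safener combinations or the single actives at various dosages in 300 l/ha water. Injury was scored visually 1–3 weeks after treatment as % versus untreated plants (0% none, 100% complete kill).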

ZEAMA Sileno [2] = experiment: Treatment 1 day before (safener applied one day before herbicide, post-emergence); design: key to Reduction [Difference]: percentage points of visually scored % crop damage vs untreated control; conditions: for Reduction [%] / Reduction [Difference]: cyprosulfamide 100 g a.i./ha 1 day before; for HER effect + SAF: cyprosulfamide 100 g a.i./ha applied 1 day before; for HER effect + SAF / HER effect: Final assessment; for HER effect: no safener
Source text: Seeds of crops (spring wheat, TRZAS; spring barley, HORVS; maize, ZEAMA) were placed in sandy loam soil in pots of a diameter of 7-8 cm, covered with soil, and cultivated in a greenhouse under good growth conditions until plants were at the 1-3 leaf stage (BBCH 11-13). For split safener and herbicide treatment, first the safener was applied followed by the herbicide treatment on the following day. The safener and herbicides were formulated as WP and sprayed onto the green parts of the plants as an aqueous suspension at an equivalent water application rate of 300 1/ha, with addition of wetting agent and adjuvants (e.g. Mero, 1.5 1/ha; ammonium sulphate, 2 kg/ha). An equivalent set of plants was treated with the herbicides but without the prior safener treatment.
After application, the test plants were kept in the greenhouse under good growth conditions. 10 and 21 days after treatment (DAT) with the herbicide, % crop damage observed on the treated plants was scored visually in comparison to control plants that had not received any safener or herbicide treatment.

ZEAMA Sileno [3] = experiment: Tank-mix; post-emergence, crop damage with and without safener; conditions: for HER effect + SAF / HER effect: Final assessment; for HER effect: no safener
Method in brief: as §1

[4] = HER 2 g a.i./ha, cyprosulfamide 50 g a.i./ha
[5] = HER dose 2 g a.i./ha + cyprosulfamide 50 g a.i./ha tank-mix
[6] = HER 8 g a.i./ha, cyprosulfamide 50 g a.i./ha
[7] = HER 32 g a.i./ha, cyprosulfamide 100 g a.i./ha
[8] = HER dose 8 g a.i./ha + cyprosulfamide 50 g a.i./ha tank-mix
[9] = HER dose 32 g a.i./ha + cyprosulfamide 100 g a.i./ha tank-mix
[10] = HER 2 g a.i./ha, cyprosulfamide 50 g a.i./ha, damage without safener - damage with safener
[11] = HER dose 2 g a.i./ha, 0% = no injury, 100% = complete kill

Row | Compound | Reduction [%] (ZEAMA Sileno [1]; HER dose 2 g a.i./ha) | Reduction [Difference] (ZEAMA Sileno [1]; HER dose 2 g a.i./ha) | HER effect + SAF (crop damage with safener) (ZEAMA Sileno [1]; HER dose 2 g a.i./ha) | HER effect (crop damage, herbicide without safener) (ZEAMA Sileno [1]; HER dose 2 g a.i./ha) | Reduction [%] (ZEAMA Sileno [1]; HER dose 8 g a.i./ha) | Reduction [Difference] (ZEAMA Sileno [1]; HER dose 8 g a.i./ha) | HER effect + SAF (crop damage with safener) (ZEAMA Sileno [1]; HER dose 8 g a.i./ha) | HER effect (crop damage, herbicide without safener) (ZEAMA Sileno [1]; HER dose 8 g a.i./ha) | Reduction [%] (ZEAMA Sileno [1]; HER dose 32 g a.i./ha) | Reduction [Difference] (ZEAMA Sileno [1]; HER dose 32 g a.i./ha) | HER effect + SAF (crop damage with safener) (ZEAMA Sileno [1]; HER dose 32 g a.i./ha) | HER effect (crop damage, herbicide without safener) (ZEAMA Sileno [1]; HER dose 32 g a.i./ha) | Reduction [%] (ZEAMA Sileno [2]; HER 8 g a.i./ha) | Reduction [Difference] (ZEAMA Sileno [2]; HER 8 g a.i./ha) | Reduction [%] (ZEAMA Sileno [2]; HER 32 g a.i./ha) | Reduction [Difference] (ZEAMA Sileno [2]; HER 32 g a.i./ha) | HER effect + SAF (ZEAMA Sileno [2]; HER dose 8 g a.i./ha) | HER effect (ZEAMA Sileno [2]; HER dose 8 g a.i./ha) | HER effect + SAF (ZEAMA Sileno [2]; HER dose 32 g a.i./ha) | HER effect (ZEAMA Sileno [2]; HER dose 32 g a.i./ha) | further results
1 | CCCSCCOC(=O)C1C=CC(NC(=O)C2(C)CC(c3cc(F)cc(F)c3)=NO2)C1 (centres unmarked) [Example 1.34] | 100% | 20 | 0% | 20% | 80% | 40 | 10% | 50% | 78% | 35 | 10% | 45% | 60% | 30 | 44% | 20 | 20% | 50% | 25% | 45% | Reduction [%] (ZEAMA Abraxas; [4]): 50%; Reduction [Difference] (ZEAMA Abraxas; [4]): 25; HER effect + SAF (ZEAMA Abraxas; [5]): 25%; HER effect (ZEAMA Abraxas; HER dose 2 g a.i./ha): 50%
2 | CN(C)C(=O)SCCOC(=O)C1C=CC(NC(=O)C2(C)CC(c3cc(F)cc(F)c3)=NO2)C1 (centres unmarked) [Example 1.29] |  |  |  |  | 100% | 60 | 0% | 60% | 93% | 70 | 5% | 75% | 67% | 40 | 73% | 55 | 20% | 60% | 20% | 75% | Reduction [%] (ZEAMA Sileno [3]; [6]): 67%; Reduction [Difference] (ZEAMA Sileno [3]; [6]): 40; Reduction [%] (ZEAMA Sileno [3]; [7]): 60%; Reduction [Difference] (ZEAMA Sileno [3]; [7]): 45; HER effect + SAF (ZEAMA Sileno [3]; [8]): 20%; HER effect (ZEAMA Sileno [3]; HER dose 8 g a.i./ha): 60%; HER effect + SAF (ZEAMA Sileno [3]; [9]): 30%; HER effect (ZEAMA Sileno [3]; HER dose 32 g a.i./ha): 75%
3 | CCOC(=O)C1C=CC(NC(=O)C2(CF)CC(c3cc(F)cc(F)c3)=NO2)C1 (centres unmarked) [Example 1.17] | 100% | 45 | 0% | 45% | 95% | 90 | 5% | 95% | 82% | 70 | 15% | 85% | 63% | 60 | 59% | 50 | 35% | 95% | 35% | 85% | Reduction [%] (ZEAMA Sileno [3]; [4]): 67%; Reduction [Difference] (ZEAMA Sileno [3]; [10]): 30; Reduction [%] (ZEAMA Sileno [3]; [6]): 53%; Reduction [Difference] (ZEAMA Sileno [3]; [6]): 50; HER effect + SAF (ZEAMA Sileno [3]; [5]): 15%; HER effect (ZEAMA Sileno [3]; [11]): 45%; HER effect + SAF (ZEAMA Sileno [3]; [8]): 45%; HER effect (ZEAMA Sileno [3]; HER dose 8 g a.i./ha): 95%; Reduction [%] (ZEAMA Sileno [2]; HER 2 g a.i./ha): 56%; Reduction [Difference] (ZEAMA Sileno [2]; HER 2 g a.i./ha): 25; HER effect + SAF (ZEAMA Sileno [2]; HER dose 2 g a.i./ha): 20%; HER effect (ZEAMA Sileno [2]; HER dose 2 g a.i./ha): 45%
4 | CC1(C(=O)NC2C=CC(C(=O)OCCSC(F)(F)F)C2)CC(c2cc(F)cc(F)c2)=NO1 (centres unmarked) [Example 1.38] | 100% | 25 | 0% | 25% | 100% | 35 | 0% | 35% | 100% | 75 | 0% | 75% |  |  | 73% | 55 |  |  | 20% | 75% | Reduction [%] (ZEAMA Abraxas; [4]): 42%; Reduction [Difference] (ZEAMA Abraxas; [4]): 25; HER effect + SAF (ZEAMA Abraxas; [5]): 35%; HER effect (ZEAMA Abraxas; HER dose 2 g a.i./ha): 60%
5 | CC1(C(=O)NC2C=CC(C(=O)OCCSCc3ccccc3)C2)CC(c2cc(F)cc(F)c2)=NO1 (centres unmarked) [Example 1.27] |  |  |  |  | 83% | 25 | 5% | 30% | 75% | 45 | 15% | 60% |  |  | 67% | 40 |  |  | 20% | 60% | Reduction [%] (ZEAMA Sileno [3]; [7]): 67%; Reduction [Difference] (ZEAMA Sileno [3]; [7]): 40; HER effect + SAF (ZEAMA Sileno [3]; [9]): 20%; HER effect (ZEAMA Sileno [3]; HER dose 32 g a.i./ha): 60%
6 | COCCOC(=O)C1C=CC(NC(=O)C2(CCl)CC(c3cc(F)cc(F)c3)=NO2)C1 (centres unmarked) [Example 1.1] |  |  |  |  | 100% | 30 | 0% | 30% | 100% | 70 | 0% | 70% |  |  | 79% | 55 |  |  | 15% | 70% | Reduction [%] (ZEAMA Abraxas; [7]): 84%; Reduction [Difference] (ZEAMA Abraxas; [7]): 80; HER effect + SAF (ZEAMA Abraxas; [9]): 15%; HER effect (ZEAMA Abraxas; HER dose 32 g a.i./ha): 95%
7 | CC1(C(=O)NC2C=CC(C(=O)O)C2)CC(c2cc(F)cc(F)c2)=NO1 (centres unmarked) [Example 1.36] | 88% | 35 | 5% | 40% | 94% | 75 | 5% | 80% | 87% | 65 | 10% | 75% | 69% | 55 | 67% | 50 | 25% | 80% | 25% | 75% | Reduction [%] (ZEAMA Sileno [3]; [4]): 50%; Reduction [Difference] (ZEAMA Sileno [3]; [10]): 20; Reduction [%] (ZEAMA Sileno [3]; [6]): 63%; Reduction [Difference] (ZEAMA Sileno [3]; [6]): 50; HER effect + SAF (ZEAMA Sileno [3]; [5]): 20%; HER effect (ZEAMA Sileno [3]; [11]): 40%; HER effect + SAF (ZEAMA Sileno [3]; [8]): 30%; HER effect (ZEAMA Sileno [3]; HER dose 8 g a.i./ha): 80%; Reduction [%] (ZEAMA Sileno [2]; HER 2 g a.i./ha): 63%; Reduction [Difference] (ZEAMA Sileno [2]; HER 2 g a.i./ha): 25; HER effect + SAF (ZEAMA Sileno [2]; HER dose 2 g a.i./ha): 15%; HER effect (ZEAMA Sileno [2]; HER dose 2 g a.i./ha): 40%
8 | C=CC1(C(=O)NC2C=C(C(=O)OC)OC2)CC(c2cc(C)cc(C)c2)=NO1 (centres unmarked) [Example 1.90] |  |  |  |  | 73% | 61 | 22% | 83% | 68% | 64 | 30% | 94% |  |  |  |  |  |  |  |  | Reduction [%] (ZEAMA Abraxas; [4]): 88%; Reduction [Difference] (ZEAMA Abraxas; [4]): 22; HER effect + SAF (ZEAMA Abraxas; [5]): 3%; HER effect (ZEAMA Abraxas; HER dose 2 g a.i./ha): 25%
